One data set concerns SF188 cells. Kind of data set: Cell viability assay (Cell Counting Kit-8), SF188. Type of data set: cell-based, Human. The conditions noted are these: for Effect on viability of paediatric glioblastoma cell line SF188 (in words): 0–100 μM; for Effect on viability of paediatric glioblastoma cell line SF188 (in words) / IC50: 72 hr; for IC50: CCK-8, mean ± SEM. As to the method:
(§1) Cell viability was determined by using a Cell Counting Kit‐8 (Dojindo, Japan). Briefly, cells were harvested from flasks and plated in 96‐well cell culture plates at 5 × 10^3 per well and cultured overnight. […] Control cells were treated with cell culture medium and measured at the same time point as treatment groups. CCK‐8 solution (10 μl) was added to each well of the 96‐well plates, and the cultures were incubated for 30 min at 37°C. Absorbance at 450 nm was measured using an automatic microplate reader (Molecular Devices, San Jose, CA, USA).
(§2) Figure 2 Effect of the Na^+/Ca^2+ exchanger (NCX) blockers on viability of human glioblastoma cell lines. (a, b) Viability of adult glioblastoma cell lines (U87 and U251) after exposure to NCX blockers bepridil, KB‐R7943, SEA0400, SN‐6, or YM244769 at 0–100 μM for 72 hr. n = 5 independent tests per group. (c) Viability of paediatric glioblastoma cell line SF188 after 72‐hr incubation with the same NCX blockers at 0–100 μM. n = 5 independent tests per group. (d) For U87, U251, and SF188 cell lines, concentration of the NCX blockers required to produce half maximal inhibition (IC50: μM, mean ± SEM) of cell viability.
(Formazan colour is commonly taken as a measure of viable cells.)

The test system of data set [1] is U87 cells. Nature of the data set: Cell viability assay (Cell Counting Kit-8), U87. The data set is classed as cell-based, Human. As to conditions: for IC50: 72 hr, CCK-8, mean ± SEM. How it is done:
as §1, §2

For data set [2], the system named is U87 cells. Nature of the data set: Cell cycle assay (PI staining, flow cytometry) of U87 cells. As to conditions: bepridil 25 μM 6–24 hr, CB‐DMB 3.5 μM 6–24 hr, KB‐R7943 25 μM 18 hr, BAPTA‐AM 10 μM 18 hr, CC‐930 10 μM, PD169316 10 μM 18 hr. Type of data set: cell-based, Human. As to the method:
U87 cells were seeded in six‐well plates (Corning, Corning, NY, USA) with 1 × 10^6 cells per well and treated with NCX blockers, BAPTA‐AM, or MAPK inhibitors. Drug treatment was performed by the person who is blinded to the experimental groups. After treatment, cells were harvested in 15‐ml tubes and washed with cold sterile PBS. After being centrifuged, cells were fixed with 70% ethanol […] at 4°C for at least 1 hr. For propidium iodide (PI) staining, cells were washed one time with PBS and then were treated with ribonuclease A (RNase; 100 μg·ml^−1) for 30 min. PI (10 μg·ml^−1) was added, and stained cells were kept in the dark at 4°C until analysis. The number of cells analysed for each sample was 10,000 events. FACS analysis was performed using the Coulter CytoFlexS flow cytometer (Beckman Coulter, CA, USA), and the percentage of cells in the G0/G1, S, and G2/M phases was determined using cell cycle analysis software, ModFit LT 5.0 (Verity Software House, Topsham, ME, USA). For the apoptosis assay, cells were harvested and washed twice with cold PBS and resuspended at a density of 1 × 10^6 cells·ml^−1 in 100 μl of binding buffer containing 5 μl of Annexin V–FITC and 5 μl of PI working solution (100 μg·ml^−1). After incubation at room temperature for 15 min in the dark, 400 μl of binding buffer was added to each sample. Apoptosis was analysed by Coulter CytoFlexS flow cytometer (Beckman Coulter) for at least 10,000 events, and data were analysed with the software, CyExpert 2.0 (Beckman Coulter).

Another data set deals with human astrocytes. Nature of the data set: Cell viability of human astrocytes. The conditions noted are these: 25 μM, 48 hr. Type of data set: cell-based. How it is done:
Cell viability was determined by using a Cell Counting Kit‐8 (Dojindo, Japan). Briefly, cells were harvested from flasks and plated in 96‐well cell culture plates at 5 × 10^3 per well and cultured overnight. Cells were treated with test reagents for 72 hr. Control cells were treated with cell culture medium and measured at the same time point as treatment groups. CCK‐8 solution (10 μl) was added to each well of the 96‐well plates, and the cultures were incubated for 30 min at 37°C. Absorbance at 450 nm was measured using an automatic microplate reader (Molecular Devices, San Jose, CA, USA).
Figure 8 Impact of bepridil on human astrocytes (HA) and the Na^+/Ca^2+ exchanger (NCX) isoforms in each cell line. (a) Viability of U87, U251, and SF188 cells and HA after exposure to bepridil (25 μM, 48 hr); n = 5 independent tests in each group. (b) The bands of NCX1, NCX2, and NCX3 isoforms detected by Western blot analysis in the sample of HA and glioblastoma cell lines U87, U118, A172, U251, and SF188. (c) Representative recording of the NCX currents in HA and glioblastoma cell lines. (d) Viability of U87, U251, and SF188 cells and HA after exposure to KB‐R7943 (25 μM, 48 hr). n = 5 independent tests in each group

What is called IC50 is the concentration that gives 50% inhibition. Read a high IC50 as weaker potency in that assay. Regarding `CC(C)COCC(CN(Cc1ccccc1)c1ccccc1)N1CCCC1` (stereo not drawn) [Bepridil, N‐benzyl‐N‐(3‐isobutoxy‐2‐pyrrolidin‐1‐yl‐propyl)aniline], the “Effect on viability of paediatric glioblastoma cell line SF188 (in words)” value in the data set on SF188 cells is “suppressed by bepridil and KB‐R7943 in a dose‐dependent manner”. In addition, the “Effect on growth (viability) of SF188 cells” value with SF188 cells (25 μM, 48 hr) is recorded as “markedly suppressed growth”. The IC50 was 12.9 ± 1 µM with SF188 cells (Homo sapiens, SF-188) and 18.6 ± 1.1 µM in the data set with U87 cells [1] (Homo sapiens, U-87 MG). In addition, in the data set on U87 cells [1] (25 μM, 48 hr), the “Effect on growth (viability) of U87 cells” value is “markedly suppressed growth”. For the same compound, the “Effect on cell cycle distribution, compound alone” value with U87 cells [2] was “reduced the cell fraction in S phase and increased cells in G0/G1 phase in a time‐dependent manner”. Besides, in the data set with human astrocytes, the “Cytotoxicity in human astrocytes (viability)” value is reported as “did not generate apparent cytotoxicity”.

Take `CS(=O)(=O)O.N=C(N)SCCc1ccc(OCc2ccc([N+](=O)[O-])cc2)cc1` [KB‐R7943, 2‐[4‐[(4‐nitrophenyl)methoxy]phenyl]ethyl ester carbamimidothioic acid methanesulfonate]: in the data set with SF188 cells, the “Effect on viability of paediatric glioblastoma cell line SF188 (in words)” value is “suppressed by bepridil and KB‐R7943 in a dose‐dependent manner”; it took 17.3 ± 1 µM to reach half-maximal inhibition (IC50). The compound further came in with an IC50 in the data set with U87 cells [1] of 26.6 ± 1.4 µM. In the data set with U87 cells [2], the “Effect on cell cycle distribution, compound alone” value was “caused G0/G1 arrest and apoptosis”. Besides, the “Cytotoxicity in human astrocytes (viability)” value in the data set on human astrocytes is “deleterious to astrocytes”.

Values taken from paper PMC6609550, “Blockade of the forward Na^+/Ca^2+ exchanger suppresses the growth of glioblastoma cells through Ca^2+‐mediated cell death” (British Journal of Pharmacology, 2019).
